Like-named read-outs stand apart in the source and are kept apart here. Numbered stars: 1 amine (or outer) side, 2 acyl side, 3 side chain; on linkers, the order of the positions; unused ones are H or OH. Square brackets hold non-standard residues; d marks the D form. Peptide text beside a SMILES is read from it. * marks the point of attachment. Doxorubicin(3'-N) = COc1cccc2c1C(=O)c1c(O)c3c(c(O)c1C2=O)C[C@@](O)(C(=O)CO)C[C@@H]3O[C@H]1C[C@H](N*)[C@H](O)[C@H](C)O1; Glutaryl = O=C(CCCC(=O)[*:2])[*:1]; Hyp = O=C(O)[C@@H]1C[C@@H](O)CN1; Chg = N[C@H](C(=O)O)C1CCCCC1; X1 = O=C(O)CCCNC(=O)CC(=O)*
Legend:
tumor cells = details: cited from earlier work
DU145 cells = assay: Prodrug cytotoxicity in non-PSA-secreting DU145 cells (MTT assay), selectivity; format: cell-based, human; details: LNCaP versus non-PSA-secreting DU145 cells, 72 h
Experimental: (§1) Monolayer cultures of PSA-secreting LNCaP and non-PSA-secreting DU145 human prostate carcinoma cells were conducted in growth medium in a CO2 incubator under a humidified atmosphere at 37° C. for 3 weeks prior to initiating cytotoxicity experiments. During cell growth, media were changed every 3 days and trypsinization carried out at 80% confluence with a 1:4 split for subsequent cultures. Cells were grown on 96-well plates for 48 h at initial concentrations of 5000 cells/well. At the end of the 48-h period, the growth medium was replaced by serum-free medium RPMI 1640 medium containing L-glutamine (2 mM), 2% TCM, penicillin G (100 units/mL) and streptomycin sulfate (100 units/mL), and prodrugs added to wells at concentrations ranging from 0.07 to 100 μM. The plates were incubated at 37° C. for 72 h under a humidified CO2 atmosphere, and cell viability determined using the MTT assay. Briefly, 10 μL aliquots of a 12 mM MTT solution were added to wells and the plates incubated in a CO2 incubator under a humidified atmosphere at 37° C. for 4 h. Well contents were then solubilized with 1% SDS (100 μL/well) for 12 h, and OD570 values measured on a Dynatech MR5000 plate reader. Cell viability was computed as a percentage of control growth, and IC50 values determined as the concentration at which cell growth is inhibited by 50%.
(§2) To assess cytotoxicity and tumor selectivity, all prodrugs were incubated in cultured cell lines secreting (LNCaP) or lacking (DU145) PSA for a period of 72 h. Doxorubicin was used as a positive control and cell viability determined at the end of the incubation period using an MTT assay. It was anticipated that peptide prodrugs would be activated extracellularly in LNCaP, but not DU145 cells, by the proteolytic action of PSA releasing doxorubicin that would ultimately lead to cell death.

LNCaP cells = assay: cells; details: for IC50: read-out: LNCaP IC50
Experimental: as §1, §2

human PSA = human PSA (Homo sapiens, UniProt P07288); assay: Hydrolysis of doxorubicin prodrugs by PSA (PSA enzyme assay, LC-MS/MS prodrug disappearance); details: for % of prodrug at 60 min: prodrug 1 μM incubated with human PSA 1 μM, 50 mM Tris buffer pH 8, 37° C.
Sequence of human PSA (P07288 25-261): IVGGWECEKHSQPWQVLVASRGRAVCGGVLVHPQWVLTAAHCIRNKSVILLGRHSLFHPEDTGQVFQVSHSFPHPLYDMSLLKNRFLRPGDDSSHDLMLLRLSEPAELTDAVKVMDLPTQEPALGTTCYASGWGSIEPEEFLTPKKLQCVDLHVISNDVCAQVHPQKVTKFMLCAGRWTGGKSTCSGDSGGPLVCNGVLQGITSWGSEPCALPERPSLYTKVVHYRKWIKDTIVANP
Experimental: (§3) For doxorubicin conjugates, peptide solution concentrations were determined by measuring the UV absorbance at 484 and 254 nm (20 μM for doxorubicin and 50 μM for phosphoramide mustard conjugates, respectively) of solutions prepared (based on weight) in water from 10 mM DMSO stock solutions. Using the extinction coefficients of doxorubicin at 484 nm (10,800 M-1·cm-1), peptide concentrations were calculated and adjusted accordingly to prepare 100 μM solutions in 50 mM Tris buffer, pH 8 containing 2 mM CaCl2 and 0.1% Tween 20. […] Peptide solutions were prepared in Tris buffer pH 8 at a concentration of 1.11 μM from 1 mM DMSO stock solutions, and warmed up to 37° C. Reactions were initiated at 37° C. with the addition of 5 μL aliquots of a 10 μM solution of human PSA to 45 μL aliquots of the 1.11 μM peptide solutions in eppendorf vials (total volume 50 μL, final PSA concentration 1 μM), and time points recorded over a period of 3 h. Reactions were terminated at 0, 10, 20, 30, 60, 120, 180 and 360 min by quenching 2 μL aliquots of incubates with 20 μL of chilled 50% ACN containing 0.1 μM internal standard (IS) and 0.1% formic acid (FA) pre-added to eppendorf vials. Samples were centrifuged at 3000 RPM for 15 min and the supernatants analyzed by LC-MS/MS in SRM mode as previously described. The fraction of prodrug remaining at each time point was calculated by dividing the prodrug/IS ratio by the 0-h prodrug/IS area ratio and half-life determined from prodrug disappearance rate.
(§4) Substrate disappearance was monitored by LC-MS/MS analysis using SRM. The percentage of prodrug remaining at any given time point was computed by taking the ratio of its peak area response and that of the 0-h time point.

[1] = target: PSA (prostate-specific antigen) (Homo sapiens, UniProt P07288); assay: as above; details: human, pH 8
Sequence of PSA (prostate-specific antigen) (P07288 25-261): as above
Experimental: as §3, §4

[2] = 72 h incubation, MTT assay, PSA-secreting LNCaP cells

SMILES: COc1cccc2c1C(=O)c1c(O)c3c(c(O)c1C2=O)C[C@@](O)(C(=O)CO)C[C@@H]3O[C@H]1C[C@H](N)[C@H](O)[C@H](C)O1 [Dox, Doxorubicin]
- times more potent than Leu-Doxorubicin at killing tumor cells (tumor cells): 10 times
- Selectivity against DU145 (DU145 cells): 1
- IC50 (LNCaP cells; Homo sapiens, LNCaP, 72 h): < 70 nM

SMILES: COc1cccc2c1C(=O)c1c(O)c3c(c(O)c1C2=O)C[C@@](O)(C(=O)CO)C[C@@H]3O[C@H]1C[C@H](NC(=O)[C@@H](N)CC(C)C)[C@H](O)[C@H](C)O1 [Leu-Doxorubicin]
- fold less cytotoxic (than doxorubicin) (tumor cells; Wong et al. (2001)): 10 fold

SMILES: COc1cccc2c1C(=O)c1c(O)c3c(c(O)c1C2=O)C[C@@](O)(C(=O)CO)C[C@@H]3O[C@H]1C[C@H](NC(=O)[C@H](CC(C)C)NC(=O)[C@H](CO)NC(=O)[C@H](CCC(N)=O)NC(=O)[C@@H](NC(=O)[C@H](CO)NC(=O)[C@H](C)NC(=O)[C@@H]2C[C@@H](O)CN2C(=O)CCCC(=O)O)C2CCCCC2)[C@H](O)[C@H](C)O1 [Prodrug 1, Glutaryl-Hyp-Ala-Ser-Chg-Gln-Ser-Leu-Dox] (Glutaryl-[Hyp]AS[Chg]QSL-{Doxorubicin(3'-N)})
- % of prodrug at 60 min (human PSA): 13%
- Selectivity against DU145 (DU145 cells): 560
- IC50 (LNCaP cells; [2]): 180 nM

SMILES: COc1cccc2c1C(=O)c1c(O)c3c(c(O)c1C2=O)C[C@@](O)(C(=O)CO)C[C@@H]3O[C@H]1C[C@H](NC(=O)[C@H](CC(C)C)NC(=O)[C@H](CO)NC(=O)[C@H](CCC(N)=O)NC(=O)[C@@H](NC(=O)[C@H](CO)NC(=O)[C@H](C)NC(=O)[C@H](CO)NC(=O)CCCC(=O)O)C2CCCCC2)[C@H](O)[C@H](C)O1 [Prodrug 2, Glutaryl-Ser-Ala-Ser-Chg-Gln-Ser-Leu-Dox] (Glutaryl-SAS[Chg]QSL-{Doxorubicin(3'-N)})
- % of prodrug at 60 min (human PSA): 12%
- Selectivity against DU145 (DU145 cells): 370
- IC50 (LNCaP cells; [2]): 270 nM

SMILES: COc1cccc2c1C(=O)c1c(O)c3c(c(O)c1C2=O)C[C@@](O)(C(=O)CO)C[C@@H]3O[C@H]1C[C@H](NC(=O)[C@H](CC(C)C)NC(=O)[C@H](CO)NC(=O)[C@H](CCC(N)=O)NC(=O)[C@@H](NC(=O)[C@H](CO)NC(=O)[C@H](C)NC(=O)CC(=O)NCCCC(=O)O)C2CCCCC2)[C@H](O)[C@H](C)O1 [Prodrug 3, GABA←mGly-Ala-Ser-Chg-Gln-Ser-Leu-Dox] (X1-AS[Chg]QSL-{Doxorubicin(3'-N)})
- half-life at 1 μM [1]: 22 min
- cytotoxicity against PSA-secreting LNCaP cells (in words) (LNCaP cells; 72 h, MTT assay): most cytotoxic prodrug

SMILES: COc1cccc2c1C(=O)c1c(O)c3c(c(O)c1C2=O)C[C@@](O)(C(=O)COC(=O)C(C)(C)CONC(=O)[C@H](CCC(N)=O)NC(=O)[C@@H](NC(=O)[C@H](CO)NC(=O)[C@H](C)NC(=O)CC(=O)NCCCC(=O)O)C1CCCCC1)C[C@@H]3O[C@H]1C[C@H](N)[C@H](O)[C@H](C)O1 [Prodrug 4, GABA←mGly-Ala-Ser-Chg-Gln-NH—O—CH2—C(Me)2C(O)-14-O-Dox]
- cytotoxin released by the prodrug (human PSA; PSA-mediated hydrolysis, LC-MS with accurate mass (FIG. 10)): free doxorubicin
- half-life at 1 μM [1]: 67 min
- cytotoxicity against PSA-secreting LNCaP cells (in words) (LNCaP cells; 72 h, MTT assay): comparable to that of L-377,202
